According to a melting point compilation (Tetko et al.; mined from patent text by program, amines drawn as free bases though some values may be those of a salt):

| melting point [°C] | SMILES |
| --- | --- |
| 193 | COC(=O)c1nn(-c2cccc(NC(C)=O)c2)c(=O)n(Cc2ccc(Cl)cc2)c1=O |
| 110 to 113 | Cc1c(-c2cccnc2)n(CCCCCCCC(=O)O)c2ccccc12 |
| 90 to 91 | Cc1c(Cl)cccc1Nc1ncccc1C(=O)OCOC(=O)C(C)(C)C |
| 118 to 119 | Cc1sc(-c2ccccc2)nc1COc1ccc(C=O)cc1 |
| 209 to 214 | COc1ccc2nc(COc3ccc(CC(SC(C)=O)C(=O)O)cc3)n(C)c2c1 (configuration not stated) |
| 158 to 160 | CCN(CC)CCNc1cccc2c1C(=O)c1cccc(NCCN(CC)CC)c1C2=O |
| 185 | O=c1oc2c(c(O)c1-c1ccccc1)CCCC2c1ccccc1 (configuration not stated) |
| 149 to 150 | O=C(O)/C(=C/c1ccc(OCc2ccccc2)cc1OCc1ccccc1)NC(=O)c1ccccc1 |
| 176 to 178 | COc1cc(C(=O)NS(=O)(=O)c2ccccc2)cnc1C(=O)O |
| 110 | C#Cc1cn(C2CC(N=[N+]=[N-])C(COC(c3ccccc3)(c3ccccc3)c3ccccc3)O2)c(=O)[nH]c1=O (configuration not stated) |
| 256 to 259 | O=C(Nc1ccc(CN2C(=O)[C@H]3CCC[C@H]3N(C(=O)CN3C(=O)c4ccccc4C3=O)c3ccccc32)cc1)c1cccc(F)c1 (relative stereo) |
| 81 to 84 | O=C(O)Cc1ccccc1Oc1cccc(F)c1 |
| 151 to 154 | FC(F)(F)COc1cccc(-c2ccc3nnn(Cc4ccc5ncccc5c4)c3n2)c1 |
| 104 to 105 | c1ccc(-c2ncn(C3CCCCO3)c2-c2ccccc2)cc1 (configuration not stated) |
| 153 to 156 | CC(C)CC(NC(=O)C(NCc1ccccc1)C(C)C)C(=O)NC(CCCCNC(=O)OCc1ccccc1)C(=O)Oc1cccc2ccccc12 (configuration not stated) |
| 105 to 106 | CCOC(=O)c1ccc(-c2nc(COc3ccc(CO)cc3OC)c(C)o2)o1 |

| melting point [°C] | SMILES |
| --- | --- |
| 155 to 156 | CC(C)n1cc(-c2ccc(Oc3ccccc3)cc2)c2c(N)ncnc21 |
| 71 to 72 | CCCCOC(=O)Cc1nc(-c2ccccc2)oc1-c1ccsc1 |
| 178 to 179 | O=C(NCCOc1ccc(CC(Oc2ccccc2)C(=O)O)cc1[N+](=O)[O-])c1ccc(-c2ccccn2)cc1 (configuration not stated) |
| 173 to 175 | O=C(NCc1ccccc1)C1=C(c2ccccc2)C(c2ccccc2)OC1=O (configuration not stated) |
| 131 to 134 | CCc1nc2c(cnn2CC)c(NC2CCOCC2)c1CNC(=O)c1cccc(C(=O)NCc2ccc(Cl)c(-c3cccc(C=O)c3)c2)c1 |
| 85 to 87 | CON=C1CCCCC1n1nc(-c2c(-c3ccccc3)nn3ccccc23)ccc1=O (configuration not stated) |
| 202 to 203 | CC(=NNC(=O)c1ccccc1)c1cccc(Cl)c1O |
| 100 to 102 | CCCCCc1ccc(OC(=O)N2CCC(OC(=O)NCCCCCCOC(=O)N3CCC4(CCCC4)CC3)CC2)cc1 |
| 241 to 246 | Oc1cc2c3ccc(O)c(O)c3n(Cc3ccccc3)c2cc1O |
| 163 to 164 | CNC(=O)c1cc2ccccc2c(-c2ccc(I)cc2)n1 |
| 116 to 118 | Cc1ccc(S(=O)(=O)n2cc(CCN(Cc3ccccc3)Cc3ccccc3)c3ccccc32)cc1 |
| 61 to 67 | CC(CCCCCOCCc1ccccc1)NCC(O)c1ccc2c(n1)COC(c1ccccc1)O2 (configuration not stated) |
| 148 to 150 | COc1ccc(C)cc1C(=O)NCCc1ccc(CC(=O)O)cc1 |
| 175 | CC(=O)Nc1cc(F)ccc1C(=O)NCCN1CCC(O)(c2ccc(Cl)cc2)CC1 |
| 222 | CC(C)n1nc(-c2c(NCc3ccncc3)nc(N)nc2-c2ccccc2)ccc1=O |

The next lines start with the compound.

| SMILES | melting point [°C] |
| --- | --- |
| COc1cc2c(cc1OC)CCCCC(C(=O)N1CCN(C(=O)c3cc(OC)c(OC)c(OC)c3)CC1)=C2 | 170 to 171 |
| O=C1CCCCc2cc(I)ccc2N1 | 207 to 208 |
| CCOC(=O)/C=C/c1ccc(OCCOC)cc1OCc1ccc(Cl)cc1Cl | 101 |
| O=C(Nc1ccc(O)cc1)C1CCCCC12OCCO2 (configuration not stated) | 173 to 174 |
| CC(=O)c1cccc2c1CCc1ccccc1C2=O | 65 to 68 |
| CCOC(=O)COc1ccc(C23CC4CC(CC(C4)C2)C3)cc1 | 89 to 90 |
| CN1CCC(c2nc3ccccc3[nH]2)C1 (configuration not stated) | 189 to 193 |
| CCC(CC)Oc1cc(C)nc2c1nc(C)c(=O)n2-c1c(C)cc(C)cc1C | 215 to 217 |
| O=C(N1CCN(c2ccccc2)CC1)N1CC(Oc2ccc(F)cc2)C1 | 124 to 125 |
| COc1ccc(C2SCCS2)cc1 | 62 to 63 |
| Cn1ncc(N2CCN(CC=Cc3ccccc3)CC2)c(Cl)c1=O | 98 to 100 |
| O=C(O)c1cc([N+](=O)[O-])cc(Br)n1 | 172 to 173 |
| Cc1nc2c(c3c1[nH]c1ccc(F)cc13)C(=O)CC(C)(C)C2 | 229 to 230 |
| CC(O)=C(C#N)C(=O)Nc1ccc(OC(F)(F)F)c(Br)c1 | 178 to 179 |
| O=[N+]([O-])c1cc(Br)ccc1N1CCc2ccccc21 | 100 to 102 |
| O=C1NC(=O)C(c2ccccc2Cl)O1 (configuration not stated) | 106 to 108 |
| CC1(c2ccc(C#N)cc2)Cc2cc(O)c(Cl)c(Cl)c2C1=O (configuration not stated) | 189 to 196 |
| CCc1c([N+](=O)[O-])c(C(N)=O)nn1C[C@@H]1CCCN1C(=O)OC(C)(C)C | 68 to 75 |
| N#Cc1cc2c(Oc3ccc(Cl)cc3)cncc2s1 | 140 to 142 |
| O=Cc1cc(Oc2c(Cl)cc(-n3ncc(=O)[nH]c3=O)cc2Cl)ccc1O | 146 to 150 |
| CS(=O)(=O)c1ccc(C2=C(c3ccc(F)cc3)C(=O)OC2)c(F)c1 | 160 to 162 |
| O=[N+]([O-])c1cccc(/C=C/c2nc(C3CCCCCCC3)cs2)c1 | 64 to 65 |
| CC(C)(C)c1cc(C(N)=O)cc(C(C)(C)C)c1O | 263 to 265 |
| COC(=O)C1(NC(=O)Cc2cc(C)ccc2C)CCN(OC)CC1 | 91 to 93 |

| SMILES | melting point [°C] |
| --- | --- |
| NC(=O)c1cc2n(n1)-c1ccc(Cl)cc1C(c1ccccc1)=NC2 | 216 to 218 |
| CC(C)CCC(=O)Nc1ccc2oc3c(c2c1)CCCC3 | 146 |
| CCOC(=O)c1c(CCn2ccnc2)nc2cc(OC)c(OC)cc2c1-c1ccc(OC)c(OC)c1 | 173 to 174 |
| COc1ccccc1N1CCN(C[C@@H](O)CN)CC1 | 76 to 80 |
| COc1ccc2cc(-c3cc4c(cc3N)OCO4)ccc2c1 | 130 to 132 |
| O=[N+]([O-])c1cc(CCO)c(NCCO)c([N+](=O)[O-])c1 | 115 |
| O=C(O)CNC(=O)C1(CS)Cc2ccccc2C1 | 137 to 143 |
| CCOC(=O)c1cccc(NC(=O)C2=C(C)OCCS2)c1 | 100 to 102 |
| CC1=C(CC#N)CCc2ccccc21 | 48 to 49 |
| CCN1CCN(C2c3c(C)c(N4CCN(c5ccc(OC)cc5)CC4)c(C)c(C)c3OC2(C)C)CC1 (configuration not stated) | 98 to 100 |
| CS(=O)c1ccc(C(=O)CCCCC#N)cc1 (configuration not stated) | 89.5 to 91.5 |
| c1ccc2c(c1)CCc1nc(-c3ccncc3)oc1-2 | 129 to 130 |
| Cc1ccc(C(=O)Cn2c(=O)sc3ccccc32)cc1 | 168 to 170 |
| CSc1sc(-c2ccccn2)c2c1C(=O)CC(C)(C)C2 | 217 to 220 |
| CCn1cc(C(=O)O)c(=O)cc1-c1cccc(N)c1 | 145 to 146 |
| CCOC(=O)C1=CNc2ccc(C(F)(F)F)cc2CC1c1ccccc1Cl (configuration not stated) | 190 to 192 |
| N#Cc1cc(O)c2[nH]c(=O)oc2c1 | > 220 |
| Cc1ccc(-c2coc(-c3ccc4c(c3)C(C)(C)CCC4(C)C)c2)cc1 | 155 to 157 |
| CCOc1nc(C(F)(F)C(F)(F)F)cc(=O)n1-c1cc(O)c(Cl)cc1F | 117 to 120 |
| O=C(Nc1cccnn1)N1CCN(c2nccc(-c3cc(F)ccc3F)n2)CC1 | 271 to 272 |
| C#Cc1ccc(Oc2cc(C(=O)Cl)cc(C(=O)Cl)c2)cc1 | 68 to 69 |
| CC(=O)c1ccc(NS(C)(=O)=O)c(Sc2ccc(F)cc2F)c1 | 114 to 117 |
| COc1cccc2c(=O)c3c(O)cc(OCC4CO4)cc3oc12 (configuration not stated) | 182 |
| CCCCc1nc2c(c(=O)[nH]1)CN(C(=O)C(C)(C)C)CC2 | 167 to 172 |

| SMILES | melting point [°C] |
| --- | --- |
| O=C(Nc1ccc(Oc2ccnc(NC3CCCCC3)n2)c2ccccc12)c1cc(F)cc(N2CCOCC2)c1 | 135 to 136 |
| CC(C)CC(=O)Nc1ccc(-c2ccnc3c(C(=O)c4cccs4)cnn23)s1 | 268 to 270 |
| Cn1ncnc1COc1nn2c(-c3cnccn3)nncc2c1-c1ccccc1F | 179 to 180 |
| C/C=C/C/C=C/CCCCCCCC(=O)Nc1nc(CC(=O)O)cs1 | 101 to 102 |
| CN1CCNC(=O)c2cccc(N)c21 | 130 to 133 |
| Cc1[nH]c(=S)n(Nc2cccc(Cl)c2)c1C(=O)O | 166 to 168 |
| CCCc1c(OCCCCCc2nnnn2C)ccc(C(C)=O)c1O | 72 to 75 |
| CC(C)S(=O)(=O)c1cnc2c(c1)nc(CC(C)(C)C)n2CCN(C)C | 119 |
| COc1ccc2c(c1)C(c1ccc(N)cc1)=NN(C(=O)C1CC1)C(C)=C2 | 214 to 216 |
| O=Cc1csc(Cc2ccccc2)n1 | 78 |
| O=C(O)CC1(CS)CC1 | 42 to 45 |
| O=C(O)CCC/C=C\CN1C(=O)c2ccccc2C1=O | 86 to 88 |
| COc1ccc(C(=O)Nc2ccc(F)cc2)cc1N([N+](=O)[O-])S(=O)(=O)c1ccccc1 | 221 to 240 |
| CCCn1c(C)nc(N2CCc3ccccc3CC2)c([N+](=O)[O-])c1=O | 164 to 170 |
| CC(C)(C)OC(=O)C(=[N+]=[N-])C(=O)CO | 35 |
| COc1ccc2c(c1)C(=O)C(Cc1nccs1)CO2 (configuration not stated) | 71 to 73 |
| CCCC(C)COc1cc(CCl)c(OC)cc1CCl (configuration not stated) | 78 to 80 |
| O=C1C2=NCC3(CCCC3)CN2c2ccc(S(=O)(=O)N3CCCC3CN3CCOCC3)cc21 (configuration not stated) | 163 to 164 |
| Cc1cc2c(cc1C)C(N)CC(C)(C)O2 (configuration not stated) | > 270 |
| CCN(CC)CCN1C(=O)c2ccc(NC(C)=O)cc2Oc2cc(C(F)(F)F)ccc21 | 75 to 85 |
| CCCCCCCCCCCCCCCCCC1=NCCO1 | 52 to 53 |
| CCOc1cc(C=O)cc2c1OC(C)(C)C2 | 33 to 36 |
| NC(=O)N1CC(Oc2ccc(Cl)c(Cl)c2)C1 | 179 to 184 |
